Results: patent US20190159450A1, “PYRIDINE-BASED COMPOUND INCLUDING ISOXAZOLINE RING AND USE THEREOF AS HERBICIDE” (MOGHU RESEARCH CENTER LTD., priority 2016, published 2019)

Tests used:
Assay type in all cases: in vivo
[1] = test system: wheat; test: Herbicidal activity test, pre-weeds emergence treatment (crop damage); conditions: Table 4, 200 g/ha, assessed 2 to 3 weeks after spraying, scale 0-10 (0: no effect, 10: complete death)
Method: (§1) A rectangular plastic pot with a surface area of 300 cm^2 was filled with sandy loam soil and mixed soil at a ratio of 1:1, and four kinds of weeds including Quamoclit pennata, Abutilon theophrasti Medicus, and Aeschynomene indica, Xanthium strumarium were sown therein. In another pot made in the same way, three kinds of crop seeds including maize, wheat, and rice were sown. The pots were watered and one day later, a medicament was sprayed thereon. The spraying was performed by using a track sprayer (R&D Sprayer, USA) equipped with Teejet 8002EVS (Spraying Systems Co., USA) nozzle, and the spray amount was controlled to be 1000 L/ha. A spray solution was prepared by dissolving the compound of each example or a control material in acetone, and then, adding the same amount of 0.1% (v/v) tween 20 aqueous solution thereto. The spray amount was 200 g/ha. The pots were placed in a greenhouse in which the temperature was maintained at 25° C. to 30° C. during the day and 15° C. to 25° C. during the night, and was regularly watered. After 2 to 3 weeks from the spraying of the compounds or the control material, the efficacy and the damages on each weed and each crop were assessed according to the scale of 0-10 (0: no effect, 10: complete death) scale and the results are shown in Table 3 below.
(§2) Pots for crops and weeds were prepared in the same manner as the test method illustrated in Table 3, and three kinds of weeds selected from Quamoclit pennata, Abutilon theophrasti Medicus, and Aeschynomene indica, Xanthium strumarium were used.

[2] = test system: maize; test: as above; conditions: Table 4, 200 g/ha, assessed 2 to 3 weeks after spraying, scale 0-10 (0: no effect, 10: complete death)
Method: as §1, §2

[3] = test system: rice; test: as above; conditions: Table 4, 200 g/ha, assessed 2 to 3 weeks after spraying, scale 0-10 (0: no effect, 10: complete death)
Method: as §1, §2

[4] = test system: Xanthium strumarium; test: Herbicidal activity test, post-weeds emergence treatment; conditions: spray amount 50 g/ha for weeds, assessed after 2 to 3 weeks, 0: no effect, 10: complete death, Table 6
Method: as §1
(§3) Pots for crops and weeds were prepared in the same manner as in Experimental Example 1, and then, when the crops and the weeds were raised up to 2 weeks roughly on a third-leaf stage, the compounds and the control material were sprayed thereon in the same manner as described above. The spray amount was 200 g/ha. After 2 to 3 weeks from the spraying of the test substance or the control substance, the efficacy and the damages on each weed and each crop were assessed according to the scale of 0-10 (0: no effect, 10: complete death) scale.
(§4) Pots for crops and weeds were prepared in the same manner as the test method illustrated in Table 5, and four kinds of weeds selected from Quamoclit pennata, Abutilon theophrasti Medicus, and Aeschynomene indica, Xanthium strumarium were used. The spray amount was 200 g/ha for crops and 50 g/ha for weeds.

[5] = test system: Abutilon theophrasti Medicus; test: as above; conditions: spray amount 50 g/ha for weeds, assessed after 2 to 3 weeks, 0: no effect, 10: complete death, Table 6
Method: as §1, §3, §4

[6] = test system: Aeschynomene indica; test: as above; conditions: spray amount 50 g/ha for weeds, assessed after 2 to 3 weeks, 0: no effect, 10: complete death, Table 6
Method: as §1, §3, §4

[7] = test system: Quamoclit pennata; test: as above; conditions: spray amount 50 g/ha for weeds, assessed after 2 to 3 weeks, 0: no effect, 10: complete death, Table 6
Method: as §1, §3, §4

[8] = test system: Xanthium strumarium; test: Herbicidal activity test, pre-weeds emergence treatment; conditions: Table 4, 200 g/ha, assessed 2 to 3 weeks after spraying, scale 0-10 (0: no effect, 10: complete death)
Method: as §1, §2

[9] = test system: Abutilon theophrasti Medicus; test: as above; conditions: Table 4, 200 g/ha, assessed 2 to 3 weeks after spraying, scale 0-10 (0: no effect, 10: complete death)
Method: as §1, §2

[10] = test system: Aeschynomene indica; test: as above; conditions: Table 4, 200 g/ha, assessed 2 to 3 weeks after spraying, scale 0-10 (0: no effect, 10: complete death)
Method: as §1, §2

[11] = test system: Quamoclit pennata; test: as above; conditions: Table 4, 200 g/ha, assessed 2 to 3 weeks after spraying, scale 0-10 (0: no effect, 10: complete death)
Method: as §1, §2

[12] = test system: wheat; test: Herbicidal activity test, post-weeds emergence treatment (crop damage); conditions: spray amount 200 g/ha for crops, assessed after 2 to 3 weeks, 0: no effect, 10: complete death, Table 6
Method: as §1, §3, §4

[13] = test system: maize; test: as above; conditions: spray amount 200 g/ha for crops, assessed after 2 to 3 weeks, 0: no effect, 10: complete death, Table 6
Method: as §1, §3, §4

[14] = test system: rice; test: as above; conditions: spray amount 200 g/ha for crops, assessed after 2 to 3 weeks, 0: no effect, 10: complete death, Table 6
Method: as §1, §3, §4

Compound	PRE TRZAW (wheat), damage score [1]	PRE ZEAMX (maize), damage score [2]	PRE ORYSA (rice), damage score [3]	XANST (Xanthium strumarium) herbicidal efficacy, scale of 0-10 [4]	ABUTH (Abutilon theophrasti Medicus) herbicidal efficacy, scale of 0-10 [5]	AESIN (Aeschynomene indica) herbicidal efficacy, scale of 0-10 [6]	IPOAN (Quamoclit pennata) herbicidal efficacy, scale of 0-10 [7]	PRE XANST (Xanthium strumarium), efficacy score [8]	PRE ABUTH (Abutilon theophrasti Medicus), efficacy score [9]	PRE AESIN (Aeschynomene indica), efficacy score [10]	PRE IPOAN (Quamoclit pennata), efficacy score [11]	TRZAW (wheat) damage, scale of 0-10 [12]	ZEAMX (maize) damage, scale of 0-10 [13]	ORYSA (rice) damage, scale of 0-10 [14]
CCOC(=O)c1nc(C2CC(Br)=NO2)cc(N)c1Cl (centres unmarked) [Compound 73, ethyl 4-amino-6-(3-bromo-4,5-dihydroisoxazol-5-yl)-3-chloropicolinate]	0	0	0	9	6	9	4	9	10	10	6	1	0	0
COC(=O)c1nc(C2(C)CC(Br)=NO2)cc(N)c1Cl (centres unmarked) [Compound 53, methyl 4-amino-3-chloro-6-(3-bromo-5-methyl-4,5-dihydroisoxazol-5-yl)picolinate]	0	0	0	9	6	9	4	9	10	10	6	1	0	0
CC(C)COC(=O)c1nc(C2CC(Br)=NO2)cc(N)c1Cl (centres unmarked) [Compound 84, isobutyl 4-amino-6-(3-bromo-4,5-dihydroisoxazol-5-yl)-3-chloropicolinate]	0	0	1	10	6	9	6	10	4	10	5	0	0	0
CC1(c2cc(N)c(Cl)c(C(=O)O)n2)CC(Br)=NO1 (centres unmarked) [Compound 54, 4-amino-3-chloro-6-(3-bromo-5-methyl-4,5-dihydroisoxazol-5-yl)picolinic acid]	0	0	0	8	4	6	5	8	10	10	5	0	0	0
Nc1cc(C2CC(Br)=NO2)nc(C(=O)O)c1Cl (centres unmarked) [Compound 34, 4-amino-3-chloro-6-(3-bromo-4,5-dihydroisoxazol-5-yl)picolinic acid]	0	0	0	10	6	10	3	10	9	10	10	0	0	2
Nc1cc(C2CC(Cl)=NO2)nc(C(=O)OCc2ccccc2)c1Cl (centres unmarked) [Compound 95, benzyl 4-amino-3-chloro-6-(3-chloro-4,5-dihydroisoxazol-5-yl)picolinate]	0	0	6	10	10	10	8	10	10	10	0	1	1	1
Nc1cc(C2CC(Br)=NO2)nc(C(=O)OCc2ccccc2)c1Cl (centres unmarked) [Compound 86, benzyl 4-amino-3-chloro-6-(3-bromo-4,5-dihydroisoxazol-5-yl)picolinate]	0	0	0	8	4	2	5	2	3	6	3	0	0	3
